Our source for the inhibition, IC50 and inhibition % values is PMC6832352, “Synthesis and Glycosidase Inhibition of Broussonetine M and Its Analogues” (Molecules, 2019).

As usually defined, the inhibition is the drop in the measured response relative to a control, in per cent. In general, IC50 refers to the midpoint of a concentration-inhibition curve. The low end stands for inhibition by little substance, the high end for a need for much substance.

What all share (format): biochemical
One test has as its target T1, α-Glucosidase (Saccharomyces cerevisiae, UniProt P53341).
T1 construct: purchased Sigma-Aldrich Chemical Co
Briefly: glycosidase inhibition assay, yeast α-glucosidase. The settings on record: for IC50: α-Glucosidase, Yeast. How it is done: (§1) With rat intestinal maltase as an exception, other enzymes were purchased from Sigma-Aldrich Chemical Co. (St. Louis, Mo. USA). Brush border membranes prepared from rat small intestine according to the method of Kessler et al. were assayed at pH 6.8 for rat intestinal maltase using maltose. The released D-glucose was determined colorimetrically using the Glucose CII-test Wako (Wako Pure Chemical Ind.; Osaka, Japan). Other glycosidase activities were determined using an appropriate p-nitrophenyl glycoside as substrate in a buffer solution at the optimal pH value of each enzyme. The reaction was stopped by adding 400 mM Na2CO3. The released p-nitrophenol was measured spectrometrically at 400 nm.

The target in another test is β-Glucosidase. Put plainly: glycosidase inhibition assay, almond β-glucosidase. The settings on record: for inhibition %: at 100 μM. On the procedure: as §1
A further test deals with T2, α-Galactosidase (Coffea arabica, UniProt Q42656).
T2 construct: purchased Sigma-Aldrich Chemical Co
Put plainly: glycosidase inhibition assay, coffee beans α-galactosidase. The settings on record: for IC50: α-Galactosidase, Coffee beans. How it is done: as §1

For another test, the target named is T3, α-Mannosidase (Canavalia ensiformis, UniProt C0HJB3).
T3 construct: purchased Sigma-Aldrich Chemical Co
T3 sequence (C0HJB3 1-981): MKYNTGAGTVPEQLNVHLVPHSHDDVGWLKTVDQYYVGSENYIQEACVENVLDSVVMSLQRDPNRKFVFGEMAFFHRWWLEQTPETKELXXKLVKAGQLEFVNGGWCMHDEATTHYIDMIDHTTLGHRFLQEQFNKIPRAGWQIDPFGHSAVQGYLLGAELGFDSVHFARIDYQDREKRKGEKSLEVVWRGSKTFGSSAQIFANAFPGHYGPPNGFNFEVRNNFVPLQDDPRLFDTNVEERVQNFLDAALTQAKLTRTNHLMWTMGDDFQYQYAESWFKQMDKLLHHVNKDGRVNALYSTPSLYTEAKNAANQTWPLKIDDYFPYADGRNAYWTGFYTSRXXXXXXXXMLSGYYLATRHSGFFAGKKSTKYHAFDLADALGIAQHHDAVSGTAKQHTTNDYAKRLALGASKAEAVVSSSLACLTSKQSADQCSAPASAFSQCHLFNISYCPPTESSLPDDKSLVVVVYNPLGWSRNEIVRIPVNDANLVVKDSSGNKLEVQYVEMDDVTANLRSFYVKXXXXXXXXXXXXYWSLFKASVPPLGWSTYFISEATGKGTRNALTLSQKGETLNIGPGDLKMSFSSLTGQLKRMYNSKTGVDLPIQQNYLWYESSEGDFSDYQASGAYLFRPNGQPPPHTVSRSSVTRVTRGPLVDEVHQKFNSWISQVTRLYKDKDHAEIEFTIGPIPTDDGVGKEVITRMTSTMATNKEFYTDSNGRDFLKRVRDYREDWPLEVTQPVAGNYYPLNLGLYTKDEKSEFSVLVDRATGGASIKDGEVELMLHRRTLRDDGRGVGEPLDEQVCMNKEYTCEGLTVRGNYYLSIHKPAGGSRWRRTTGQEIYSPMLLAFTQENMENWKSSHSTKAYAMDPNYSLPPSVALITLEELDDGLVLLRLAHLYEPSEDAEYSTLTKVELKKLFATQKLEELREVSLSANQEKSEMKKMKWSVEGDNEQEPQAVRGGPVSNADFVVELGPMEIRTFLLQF
Put plainly: glycosidase inhibition assay, jack bean α-mannosidase. On the procedure: as §1

A further test has as its target β-Mannosidase. Put plainly: glycosidase inhibition assay, snail β-mannosidase. The settings on record: for inhibition %: at 100 μM. How it is done:
as §1

The next test concerns the target T4, Amyloglucosidase (Aspergillus niger, UniProt P69328).
T4 construct: purchased Sigma-Aldrich Chemical Co
Put plainly: glycosidase inhibition assay, A. niger amyloglucosidase. How it is done:
as §1

The target of the next test is T5, α-L-Rhamnosidase (Penicillium decumbens, UniProt S7ZS15).
T5 sequence (S7ZS15 1-894): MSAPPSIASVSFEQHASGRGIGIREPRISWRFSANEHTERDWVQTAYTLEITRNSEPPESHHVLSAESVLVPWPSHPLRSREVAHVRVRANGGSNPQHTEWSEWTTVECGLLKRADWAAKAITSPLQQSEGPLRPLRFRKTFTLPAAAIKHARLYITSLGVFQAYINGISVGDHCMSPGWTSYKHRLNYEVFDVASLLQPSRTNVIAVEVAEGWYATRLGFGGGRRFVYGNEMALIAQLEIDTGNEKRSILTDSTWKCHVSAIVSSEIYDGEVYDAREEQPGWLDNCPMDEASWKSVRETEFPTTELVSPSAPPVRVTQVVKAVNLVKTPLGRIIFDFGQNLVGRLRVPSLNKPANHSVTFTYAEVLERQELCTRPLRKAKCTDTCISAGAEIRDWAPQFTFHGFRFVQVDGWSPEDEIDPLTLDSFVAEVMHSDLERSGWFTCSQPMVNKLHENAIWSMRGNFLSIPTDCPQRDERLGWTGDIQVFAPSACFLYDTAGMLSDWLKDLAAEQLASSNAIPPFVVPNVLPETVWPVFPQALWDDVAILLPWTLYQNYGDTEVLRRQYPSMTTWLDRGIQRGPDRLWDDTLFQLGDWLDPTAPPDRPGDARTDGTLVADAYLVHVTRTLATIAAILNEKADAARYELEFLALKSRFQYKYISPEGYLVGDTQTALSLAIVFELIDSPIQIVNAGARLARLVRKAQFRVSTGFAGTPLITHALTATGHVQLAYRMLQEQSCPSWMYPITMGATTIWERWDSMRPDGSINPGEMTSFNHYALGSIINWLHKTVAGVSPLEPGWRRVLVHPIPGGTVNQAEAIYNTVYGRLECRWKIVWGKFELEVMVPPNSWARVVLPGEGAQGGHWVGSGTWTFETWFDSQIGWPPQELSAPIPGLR
Briefly: glycosidase inhibition assay, P. decumbens α-L-rhamnosidase. On the procedure:
as §1

T1 sequence (P53341 whole entry): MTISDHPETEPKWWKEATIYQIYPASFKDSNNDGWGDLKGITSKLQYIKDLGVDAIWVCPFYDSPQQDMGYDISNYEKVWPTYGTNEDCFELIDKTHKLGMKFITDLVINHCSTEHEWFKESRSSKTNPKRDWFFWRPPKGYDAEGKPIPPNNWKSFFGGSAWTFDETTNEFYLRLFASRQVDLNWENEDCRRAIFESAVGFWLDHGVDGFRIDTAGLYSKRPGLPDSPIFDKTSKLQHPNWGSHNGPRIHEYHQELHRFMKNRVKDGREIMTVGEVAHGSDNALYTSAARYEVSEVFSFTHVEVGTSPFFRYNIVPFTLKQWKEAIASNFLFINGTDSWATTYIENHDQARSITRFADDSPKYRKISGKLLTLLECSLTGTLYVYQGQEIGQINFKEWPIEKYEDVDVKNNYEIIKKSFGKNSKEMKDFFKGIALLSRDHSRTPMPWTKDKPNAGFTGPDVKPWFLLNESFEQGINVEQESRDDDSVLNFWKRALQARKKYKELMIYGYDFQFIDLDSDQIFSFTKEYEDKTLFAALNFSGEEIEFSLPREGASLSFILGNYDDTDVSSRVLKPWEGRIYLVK
T2 sequence (Q42656 16-378): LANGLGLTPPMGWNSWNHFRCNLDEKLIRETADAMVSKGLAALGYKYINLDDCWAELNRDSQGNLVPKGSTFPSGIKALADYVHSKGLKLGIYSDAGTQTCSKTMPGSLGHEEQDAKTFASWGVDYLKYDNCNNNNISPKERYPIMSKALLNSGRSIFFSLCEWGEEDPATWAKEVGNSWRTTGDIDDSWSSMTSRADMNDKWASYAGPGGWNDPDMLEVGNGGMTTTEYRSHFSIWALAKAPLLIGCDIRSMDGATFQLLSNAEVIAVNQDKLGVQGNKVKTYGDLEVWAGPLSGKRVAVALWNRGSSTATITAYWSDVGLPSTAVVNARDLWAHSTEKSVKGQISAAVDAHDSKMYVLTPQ
T4 sequence (P69328 25-640): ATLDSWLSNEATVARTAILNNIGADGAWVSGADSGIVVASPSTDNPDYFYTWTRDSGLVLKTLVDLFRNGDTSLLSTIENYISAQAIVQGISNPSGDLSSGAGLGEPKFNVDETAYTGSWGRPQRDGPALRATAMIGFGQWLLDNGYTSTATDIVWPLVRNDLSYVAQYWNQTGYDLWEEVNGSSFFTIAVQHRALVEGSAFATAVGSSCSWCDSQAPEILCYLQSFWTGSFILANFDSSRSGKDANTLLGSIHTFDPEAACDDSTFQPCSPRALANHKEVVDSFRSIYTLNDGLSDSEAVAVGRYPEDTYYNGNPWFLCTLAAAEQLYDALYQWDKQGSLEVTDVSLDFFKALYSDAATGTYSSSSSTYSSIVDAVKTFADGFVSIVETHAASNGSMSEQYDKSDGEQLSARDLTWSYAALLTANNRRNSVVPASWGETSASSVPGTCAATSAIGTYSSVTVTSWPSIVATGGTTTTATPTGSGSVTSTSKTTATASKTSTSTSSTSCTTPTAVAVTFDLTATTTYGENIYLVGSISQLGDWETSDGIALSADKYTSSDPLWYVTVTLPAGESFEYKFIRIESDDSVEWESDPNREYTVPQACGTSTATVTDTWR

Consider `OCCCC(O)CCCCCCCCCC1NC(CO)C(O)C1O` [2,10-di-epi-3, (2S,3R,4R,5R)-2-hydroxymethyl-3,4-dihydroxyl-5-((10S)-10,13-(dihydroxyl)dec-1-yl) pyrrolidine], for which the inhibition at 100 µM was determined as 3.2% against α-Glucosidase; 0% against α-Galactosidase; 0.32% on α-Mannosidase; 6.8% at Amyloglucosidase; 4.7% on α-L-Rhamnosidase. Further, the IC50 against α-Glucosidase, against β-Glucosidase, against α-Galactosidase, at α-Mannosidase, against β-Mannosidase and at Amyloglucosidase was above 100 µM in each case. In addition, the inhibition % worked out at 10.9% in the test with β-Glucosidase and 0% in the test on β-Mannosidase.

For the compound `OCCC[C@@H](O)CCCCCCCCC[C@H]1N[C@@H](CO)[C@@H](O)[C@@H]1O` [2-epi-3, (2S,3R,4R,5R)-2-hydroxymethyl-3,4-dihydroxyl-5-((10R)-10,13-(dihydroxyl)dec-1-yl) pyrrolidine], the inhibition at 100 µM turned out to be 1.6% against α-Glucosidase; 0% against α-Galactosidase; 0% at α-Mannosidase; 3.8% against Amyloglucosidase; 3.3% against α-L-Rhamnosidase. Further, the IC50 against α-Glucosidase, against β-Glucosidase, against α-Galactosidase, on α-Mannosidase, at β-Mannosidase and at Amyloglucosidase was above 100 µM in each case. In addition, the inhibition % with β-Glucosidase was determined as 8.6%; in the test with β-Mannosidase it was 0%.

With `OCCC[C@H](O)CCCCCCCCC[C@H]1N[C@H](CO)[C@@H](O)[C@@H]1O` [10’-epi-3, (2R,3R,4R,5R)-2-hydroxymethyl-3,4-dihydroxyl-5-((10S)-10,13-(dihydroxyl)dec-1-yl) pyrrolidine], the inhibition at 100 µM at α-Glucosidase worked out at 4.6%; against α-Galactosidase it was 0%; on α-Mannosidase, 0%; against Amyloglucosidase, 36.5%; against α-L-Rhamnosidase it was 4.7%. In addition, the IC50 on α-Glucosidase, against β-Glucosidase, at α-Galactosidase, against α-Mannosidase, against β-Mannosidase and against Amyloglucosidase was above 100 µM throughout. Further, the values for the inhibition % in the test with β-Glucosidase and with β-Mannosidase were 29.1% and 0%, respectively.

On to `OCCC[C@@H](O)CCCCCCCCC[C@@H]1N[C@@H](CO)[C@@H](O)[C@H]1O` [ent-3,10-di-epi-3], for which the inhibition at 100 µM at α-Glucosidase came out at 6.6%; on α-Galactosidase, 0%; at α-Mannosidase it was 0%; against Amyloglucosidase, 0%; against α-L-Rhamnosidase it was 11.4%. For the same compound, the IC50 against α-Glucosidase, against β-Glucosidase, against α-Galactosidase, at α-Mannosidase, at β-Mannosidase and against Amyloglucosidase was above 100 µM in each case. Further, the inhibition % is given as 7.3% in the test on β-Glucosidase and 2.3% in the test on β-Mannosidase.

For `OCCC[C@H](O)CCCCCCCCC[C@@H]1N[C@@H](CO)[C@@H](O)[C@H]1O` [ent-3-epi-3, (2S,3R,4S,5S)-2-hydroxymethyl-3,4-dihydroxyl-5-((10S)-10,13-(dihydroxyl)dec-1-yl) pyrrolidine], the inhibition at 100 µM against α-Glucosidase was determined as 0%; at α-Galactosidase, 0%; against α-Mannosidase it was 1.3%; at Amyloglucosidase, 0%; against α-L-Rhamnosidase, 15.2%. Besides, the IC50 against α-Glucosidase, on β-Glucosidase, against α-Galactosidase, against α-Mannosidase, at β-Mannosidase and against Amyloglucosidase was above 100 µM each time. Moreover, the inhibition % worked out at 4.6% in the test with β-Glucosidase and 0% in the test with β-Mannosidase.
